Values quoted from earlier work, collected in PMC7180638, “Synthesis of Pyrrolidine Monocyclic Analogues of Pochonicine and Its Stereoisomers: Pursuit of Simplified Structures and Potent β-N-Acetylhexosaminidase Inhibition” (Molecules, 2020).
pIC50: −log10 of the molar value. Like-named read-outs stand apart in the source and are kept apart here.

Legend:
[1] = biological target: β-N-Acetylgalactosaminidase (HL60); settings: ref [2]; cited from earlier work
[2] = biological target: β-N Acetylhexosaminidase (A. oryzae); settings: ref [2]; cited from earlier work
[3] = biological target: β-N Acetylhexosaminidase (Human placenta); settings: ref [2]; cited from earlier work
[4] = biological target: β-N-Acetylhexosaminidase (Bovine liver); settings: ref [2]; cited from earlier work
[5] = biological target: β-N-Acetylhexosaminidase (Jack bean); settings: ref [2]; cited from earlier work
[6] = biological target: β-N-Acetylhexosaminidase (HL60); settings: ref [2]; cited from earlier work
[7] = biological target: T1, α-N-Acetylgalactosaminidase (Chicken liver) (Gallus gallus, UniProt Q90744); settings: ref [2], cited from earlier work
T1 construct: purchased Sigma-Aldrich Chemical Co; host or cells: chicken liver
T1 sequence (Q90744 1-405): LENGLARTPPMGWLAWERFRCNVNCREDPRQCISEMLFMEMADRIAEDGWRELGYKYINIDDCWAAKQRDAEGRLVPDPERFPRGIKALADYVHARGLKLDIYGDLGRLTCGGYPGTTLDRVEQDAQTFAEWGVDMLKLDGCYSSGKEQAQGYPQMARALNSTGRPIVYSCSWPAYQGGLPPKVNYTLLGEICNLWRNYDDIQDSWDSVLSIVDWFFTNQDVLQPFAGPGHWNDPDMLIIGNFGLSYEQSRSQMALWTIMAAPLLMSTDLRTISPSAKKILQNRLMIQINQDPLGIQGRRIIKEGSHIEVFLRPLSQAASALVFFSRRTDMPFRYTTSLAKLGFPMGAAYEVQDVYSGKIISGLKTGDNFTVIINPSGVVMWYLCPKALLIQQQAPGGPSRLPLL

For `CC(=O)NC[C@H]1[C@H](O)[C@H](O)[C@@H]2[C@H](O)C[C@@H](CO)N21` [Pochonicine (1), pochonicine], the pIC50 [1] is listed as 7.31, the pIC50 [2] is listed as 6.48 and the pIC50 [3] is listed as 7.92. The pIC50 [4] was 7.68, the pIC50 [5] was 8.80 and the pIC50 [6] was 7.74. The “Inhibition % at 1000 μM” value ([7]; 1000 μM) was 9.0%, the IC50 ([7]; listed as pochonicine (1)) was “did not exhibit any inhibition” and the IC50 [7] was “NI (No Inhibition (less than 50% at 1000 μM))”.
